Experimental data taken from ChEMBL document CHEMBL1201862, “PubChem BioAssay data set” (2004).
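Five concentrations, 48 hours, 96-well plates. GI50: concentration for 50% inhibition of growth.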 The source made the active and inactive calls. Rule as the data show it: active = GI50 up to about 1.1 µM and inactive = higher.

How the values were obtained:
Assay in all cases: NCI anticancer screen, dose series, 48 h
HL-60 = tested on: HL-60
K562 = tested on: K562
HCC 2998 = tested on: HCC 2998
MDA-N = tested on: MDA-N
SF-539 = tested on: SF-539
COLO 205 = tested on: COLO 205
UACC-257 = tested on: UACC-257
Malme-3M = tested on: Malme-3M
HOP-62 = tested on: HOP-62
UO-31 = tested on: UO-31
IGROV-1 = tested on: IGROV-1
SR = tested on: SR
OVCAR-8 = tested on: OVCAR-8
SF-295 = tested on: SF-295
SK-MEL-5 = tested on: SK-MEL-5
LOX IMVI = tested on: LOX IMVI
A498 = tested on: A498
CCRF-CEM = tested on: CCRF-CEM
T47D = tested on: T47D
TK-10 = tested on: TK-10
OVCAR-5 = tested on: OVCAR-5
OVCAR-3 = tested on: OVCAR-3
SF-268 = tested on: SF-268
U-251 = tested on: U-251
NCI/ADR-RES = tested on: NCI/ADR-RES
SK-OV-3 = tested on: SK-OV-3
DU-145 = tested on: DU-145
SK-MEL-2 = tested on: SK-MEL-2
NCI-H460 = tested on: NCI-H460
NCI-H522 = tested on: NCI-H522
MOLT-4 = tested on: MOLT-4
CAKI-1 = tested on: CAKI-1
SK-MEL-28 = tested on: SK-MEL-28
HOP-92 = tested on: HOP-92
SW-620 = tested on: SW-620
MCF7 = tested on: MCF7
786-0 = tested on: 786-0
SNB-75 = tested on: SNB-75
M14 = tested on: M14
NCI-H226 = tested on: NCI-H226
RXF 393 = tested on: RXF 393
HCT-15 = tested on: HCT-15
OVCAR-4 = tested on: OVCAR-4
A549 = tested on: A549
NCI-H23 = tested on: NCI-H23
EKVX = tested on: EKVX
RPMI-8226 = tested on: RPMI-8226
UACC-62 = tested on: UACC-62
PC-3 = tested on: PC-3
MDA-MB-231 = tested on: MDA-MB-231
KM12 = tested on: KM12
HT-29 = tested on: HT-29
SNB-19 = tested on: SNB-19
MDA-MB-435 = tested on: MDA-MB-435
ACHN = tested on: ACHN
Hs-578T = tested on: Hs-578T
HCT-116 = tested on: HCT-116
SN12C = tested on: SN12C

With COC(=O)C1=C(C)NC(=O)N2[C@@H](CCOCc3ccccc3)CC[C@@H]12 the GI50 (HL-60) was > 50 µM (inactive), the GI50 (K562) was > 50 µM (inactive) and the GI50 (HCC 2998) was > 50 µM (inactive). For the same compound, the GI50 (MDA-N) was > 50 µM (inactive), the GI50 (SF-539) was > 50 µM (inactive) and the GI50 (COLO 205) was > 50 µM (inactive). The GI50 (UACC-257) was > 50 µM (inactive), the GI50 (Malme-3M) was > 50 µM (inactive) and the GI50 (HOP-62) was > 50 µM (inactive). For the same compound, the GI50 (UO-31) was > 50 µM (inactive), the GI50 (IGROV-1) was > 50 µM (inactive) and the GI50 (SR) was > 50 µM (inactive). The GI50 (OVCAR-8) was > 50 µM (inactive), the GI50 (SF-295) was > 50 µM (inactive) and the GI50 (SK-MEL-5) was > 50 µM (inactive). For the same compound, the GI50 (LOX IMVI) was > 50 µM (inactive), the GI50 (A498) was > 50 µM (inactive) and the GI50 (CCRF-CEM) was > 50 µM (inactive). The GI50 (T47D) was 12.4 µM (inactive), the GI50 (TK-10) was > 50 µM (inactive) and the GI50 (OVCAR-5) was > 50 µM (inactive). For the same compound, the GI50 (OVCAR-3) was > 50 µM (inactive), the GI50 (SF-268) was > 50 µM (inactive) and the GI50 (U-251) was > 50 µM (inactive). The GI50 (NCI/ADR-RES) was > 50 µM (inactive), the GI50 (SK-OV-3) was > 50 µM (inactive) and the GI50 (DU-145) was > 50 µM (inactive). For the same compound, the GI50 (SK-MEL-2) was > 50 µM (inactive), the GI50 (NCI-H460) was > 50 µM (inactive) and the GI50 (NCI-H522) was > 50 µM (inactive). For the same compound, the GI50 (MOLT-4) was 47.9 µM (inactive), the GI50 (CAKI-1) was > 50 µM (inactive) and the GI50 (SK-MEL-28) was > 50 µM (inactive). For the same compound, the GI50 (HOP-92) was > 50 µM (inactive), the GI50 (SW-620) was > 50 µM (inactive) and the GI50 (MCF7) was > 50 µM (inactive). The GI50 (786-0) was > 50 µM (inactive), the GI50 (SNB-75) was 25 µM (inactive) and the GI50 (M14) was > 50 µM (inactive). The GI50 (NCI-H226) was > 50 µM (inactive), the GI50 (RXF 393) was 13.1 µM (inactive) and the GI50 (HCT-15) was over 50 µM. For the same compound, the GI50 (OVCAR-4) was > 50 µM (inactive), the GI50 (A549) was > 50 µM (inactive) and the GI50 (NCI-H23) was > 50 µM (inactive). The GI50 (EKVX) was > 50 µM (inactive), the GI50 (RPMI-8226) was > 50 µM (inactive) and the GI50 (UACC-62) was > 50 µM (inactive). The GI50 (PC-3) was > 50 µM (inactive), the GI50 (MDA-MB-231) was > 50 µM (inactive) and the GI50 (KM12) was > 50 µM (inactive). For the same compound, the GI50 (HT-29) was > 50 µM (inactive), the GI50 (SNB-19) was > 50 µM (inactive) and the GI50 (MDA-MB-435) was > 50 µM (inactive). The GI50 (ACHN) was > 50 µM (inactive) and the GI50 (Hs-578T) was > 50 µM (inactive).
In the case of COc1cc2c(NCCN(C)C)nc3c4cc5c(cc4ccc3c2cc1OC)OCO5, the GI50 (HL-60) was 4.23 µM (inactive), the GI50 (K562) was 3.23 µM (inactive) and the GI50 (HCC 2998) was 4.59 µM (inactive). For the same compound, the GI50 (MDA-N) was 3.57 µM (inactive), the GI50 (SF-539) was 4.06 µM (inactive) and the GI50 (COLO 205) was 2.81 µM (inactive). For the same compound, the GI50 (UACC-257) was 4.1 µM (inactive), the GI50 (Malme-3M) was 4.14 µM (inactive) and the GI50 (HOP-62) was 3.54 µM (inactive). For the same compound, the GI50 (UO-31) was 3.36 µM (inactive), the GI50 (IGROV-1) was 2.8 µM (inactive) and the GI50 (SR) was 0.115 µM (active). For the same compound, the GI50 (OVCAR-8) was 3.13 µM (inactive), the GI50 (SF-295) was 2.58 µM (inactive) and the GI50 (SK-MEL-5) was 2.84 µM (inactive). The GI50 (A498) was 2.76 µM (inactive), the GI50 (CCRF-CEM) was 1.32 µM (inactive) and the GI50 (T47D) was 6.15 µM (inactive). For the same compound, the GI50 (TK-10) was 2.72 µM (inactive), the GI50 (OVCAR-5) was 3.42 µM (inactive) and the GI50 (SF-268) was 4.78 µM (inactive). For the same compound, the GI50 (U-251) was 4.16 µM (inactive), the GI50 (NCI/ADR-RES) was 4.16 µM (inactive) and the GI50 (SK-OV-3) was 4.78 µM (inactive). For the same compound, the GI50 (DU-145) was 3.96 µM (inactive), the GI50 (SK-MEL-2) was 6.04 µM (inactive) and the GI50 (NCI-H460) was 0.193 µM (active). For the same compound, the GI50 (NCI-H522) was 3.9 µM (inactive), the GI50 (MOLT-4) was 0.242 µM (active) and the GI50 (HCT-116) was 3.3 µM (inactive). For the same compound, the GI50 (CAKI-1) was 2.73 µM (inactive), the GI50 (SN12C) was 4.53 µM (inactive) and the GI50 (SK-MEL-28) was 4.93 µM (inactive). The GI50 (HOP-92) was 4.82 µM (inactive), the GI50 (SW-620) was 3.36 µM (inactive) and the GI50 (MCF7) was 1.84 µM (inactive). The GI50 (786-0) was 2.95 µM (inactive), the GI50 (SNB-75) was 2.18 µM (inactive) and the GI50 (M14) was 4.03 µM (inactive). For the same compound, the GI50 (NCI-H226) was 3.7 µM (inactive), the GI50 (RXF 393) was 3.16 µM (inactive) and the GI50 (HCT-15) was 2.94 µM. The GI50 (OVCAR-4) was 3.96 µM (inactive), the GI50 (A549) was 2.75 µM (inactive) and the GI50 (NCI-H23) was 3.08 µM (inactive). For the same compound, the GI50 (EKVX) was 4.09 µM (inactive), the GI50 (RPMI-8226) was 2.56 µM (inactive) and the GI50 (UACC-62) was 4.49 µM (inactive). For the same compound, the GI50 (PC-3) was 5.04 µM (inactive), the GI50 (MDA-MB-231) was 5.13 µM (inactive) and the GI50 (KM12) was 4.18 µM (inactive). The GI50 (HT-29) was 3.37 µM (inactive), the GI50 (SNB-19) was 3.56 µM (inactive) and the GI50 (MDA-MB-435) was 3.5 µM (inactive). For the same compound, the GI50 (ACHN) was 0.745 µM (active) and the GI50 (Hs-578T) was 5.21 µM (inactive).
